Assay results from patent US6517866B1 (Pfizer Inc., priority 1997, dated 2003).
Several values for one entry are separate records, joined by “and”; a condition that tells them apart may be missing. Identical values can stand only once. Counter-ions that a name gives are not always drawn. Values belong to the compound of their own block, whether it stands above or below them.

Tests used:
[1] = Example 13: screening of excipients that inhibit precipitation or gelation of sertraline lactate when chloride is present; type: physicochemical; conditions: sertraline lactate with excipient
[2] = tested on: healthy male human subjects; experiment: Example 2: side effect visual analogue scales and emesis; type: in vivo; conditions: 200 mg bolus dose group (n=14)
[3] = tested on: healthy male human subjects; experiment: Example 6 Study II: emesis, regurgitation and PK/PD plots
[4] = tested on: healthy male human subjects; conditions: Study I
[5] = tested on: healthy male human subjects; experiment: Example 1: side effect visual analogue scales and emesis; type: in vivo; conditions: 15 hr divided dose regimen (15 subjects)
[6] = Example 2: plasma sertraline pharmacokinetics, 200 mg bolus vs 7 hr divided dosing; type: in vivo; conditions: male, human, oral, mean
[7] = Example 1: plasma sertraline pharmacokinetics, 200 mg bolus vs 15 hr divided dosing; type: in vivo; conditions: male, human, oral
[8] = Example 15: sertraline dissolution rate from packed powder in gastric buffer; type: physicochemical
[9] = Example 10: solubility of sertraline hydrochloride in organic acid solutions; conditions: water (no acid excipient), thermodynamic from solid
[10] = Mechanical properties of compacts (compression, indentation hardness, moduli, tensile strength); type: physicochemical; conditions: for Compression Stress / Solid Fraction: Compact Preparation; for Dynamic Indentation Hard. / Reduced Elastic Modulus: Dynamic Indentation; for Tensile Strength: Tensile Fracture

Compound: N[C@@H](Cc1c[nH]cn1)C(=O)O [Histidine]
Final Sertraline Concentration ([1]; NaCl 150 mM): 110 mg/mL
Observation After NaCl Addition ([1]; NaCl 150 mM): slight precipitate

Compound: CCCCCCCCCCCC(=O)OCC(O)CO (stereo not shown) [Imwitor ® 312, Glyceryl Monolaurate]
Sertraline Dissolution Rate ([8]; excipient 5.0, ascorbic 49.5, lactose 12.5, CaCO3 5, lactate 14 wt %): 20.9 mg/ml-min
Sertraline Dissolution Rate ([8]; excipient 6.8, aspartic 74.2, lactate 19 wt %): 5.3 mg/ml-min

Compound: CCCCCCCC/C=C\CCCCCCCC(=O)OCC(O)CO (stereo not shown) [Myrerol ® (18-99), Glyceryl Monooleate]
Sertraline Dissolution Rate ([8]; excipient 5.0, ascorbic 49.5, lactose 12.5, lactate 14 wt %): 6.4 mg/ml-min

Compound: CN[C@H]1CC[C@@H](c2ccc(Cl)c(Cl)c2)c2ccccc21 [Sertraline hydrochloride]
solubility [9]: 25 mg/mL

Compound: Sertraline acetate
elastic modulus (in words) [10]: relatively low
Compression Stress [10]: 36.7 (2.5) Mpa
Solid Fraction [10]: 0.831
Dynamic Indentation Hard. [10]: 60.0 (0.4) Mpa
Reduced Elastic Modulus [10]: 5.1 (0.5) GPa
Quasistatic Indentation Hard. ([10]; Quasistatic Indentation): 25.1 (1.3) Mpa
Shear Modulus ([10]; Quasistatic Indentation): 99.9 (19.1) Mpa
Tensile Strength [10]: 0.52 (0.03) Mpa
ductility (in words) ([10]; from dynamic indentation hardness): high (dynamic indentation hardness values below 100 Mpa are high)

More lines, main results first:

PK/PD plot of average nausea score vs plasma sertraline concentration (FIG. 6) ([4]; 200 mg bolus dose): clockwise hysteresis
diarrhea score vs plasma sertraline concentration curve ([4]; 200 mg bolus dose): clockwise hysteresis
time of maximum diarrhea score ([4]; post-dose): 3 h
Tmax ([6]; 25 mg per hr for 7 hr): 10.4 h
Cmax ([6]; 25 mg solution per hr for 7 hr (eight doses, 200 mg)): 46 ng/mL
Cmax [7]: 32 ng/mL
Tmax [7]: 16 h
Compound: CN[C@H]1CC[C@@H](c2ccc(Cl)c(Cl)c2)c2ccccc21 [Sertraline]
emetic events [2]: 4
subjects who exhibited regurgitation ([3]; 200 mg dose group): four
subjects with emesis ([3]; 200 mg dose group): Four
time of emesis in individual subjects ([3]; 200 mg dose group): 2.6 h and 2.8 h and 3.8 h
individual PK/PD plots for regurgitation ([3]; the four subjects with regurgitation): clockwise hysteresis
emetic episodes [5]: no emetic episodes

Sertraline Dissolution Rate ([8]; excipient 6.8, no acid, lactose 74.2, lactate 19 wt %): 4.3 mg/ml-min
Compound: CCCCCCCCCCCCCCCC(=O)OC[C@H](O)[C@H]1OC(=O)C(O)=C1O [Ascorbyl palmitate]

Observation After NaCl Addition ([1]; NaCl 100 mM): precipitate
Compound: O=C1O[C@H]([C@@H](O)CO)C(O)=C1O [Ascorbic acid]

Sertraline Dissolution Rate ([8]; Span 60 5.0, ascorbic 51.0, lactose 15, lactate 14 wt %): 9.5 mg/ml-min
Compound: Span ® 60

Sertraline Dissolution Rate ([8]; excipient 5.0, ascorbic 49.5, lactose 12.5, CaCO3 1.0, lactate 14 wt %): 8.0 mg/ml-min
Compound: CCCCCCCCCCCCCCCCCC(=O)OCC(O)CO (stereo not shown) [Imwitor ® 191, Glyceryl Monostearate]

tensile strength (in words) [10]: very high
Compression Stress [10]: 52.8 (0.7) Mpa
Solid Fraction [10]: 0.862
Dynamic Indentation Hard. [10]: 81.6 (1.6) Mpa
Reduced Elastic Modulus [10]: 7.4 (0.6) GPa
Elastic Modulus ([10]; Quasistatic Indentation): 2.0 (0.2) Gpa
Quasistatic Indentation Hard. ([10]; Quasistatic Indentation): 31.1 (1.4) Mpa
Shear Modulus ([10]; Quasistatic Indentation): 113.9 (4.6) Mpa
Tensile Strength [10]: 0.56 (0.02) Mpa
Sertraline Dissolution Rate ([8]; no candidate excipient, ascorbic 51.0, lactose 20, lactate 14 wt %): 3.5 mg/ml-min
Sertraline Dissolution Rate ([8]; sertraline lactate 100 wt %, no excipient): 0.9 mg/ml-min
Compound: CN[C@H]1CC[C@@H](c2ccc(Cl)c(Cl)c2)c2ccccc21.C[C@H](O)C(=O)O [Sertraline L-lactate]
